The values that follow come from US10294234B2, “HIV inhibitor compounds” (priority 2017, dated 2019).

This assay has as its system HIV-1 (IIIB) in MT-4 cells. Description: MT-4 HIV assay. It is filed as cell-based. Put shortly:
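Antiviral activity was read by Cell Titer Glo after a 5-day, 37 °C culture of MT-4 cells pre-infected with a 1:250 dilution of HIV-1 (IIIB). Compounds were tested as threefold dilution series in complete RPMI. Controls were no drug, mock infection and 5 uM AZT.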

[1] abbreviates: Human immunodeficiency virus 1, MT4, 120 h, HIV-1 (IIIB), MT-4 cells, 5 days, Cell Titer Glo, read-out: EC50.
[2] abbreviates: Human immunodeficiency virus 1, MT4, 120 h.

The structures appear in SMILES notation. Like-named read-outs stand apart in the source and are kept apart here.

Consider `COC(=O)N[C@H](C(=O)N[C@@H](Cc1ccc(C#Cc2ccc(N3CC4CCC(C3)N4C(=O)[C@@H]3CCCO3)nc2)cc1)[C@@H](O)CN(Cc1c(F)cc(-c2cnc(F)c(F)c2)cc1F)NC(=O)[C@@H](NC(=O)OC)C(C)(C)C)C(C)(C)C` [Example 64, Methyl ((5S,8S,9S,14S)-5-(tert-butyl)-11-(4-(5,6-difluoropyridin-3-yl)-2,6-difluorobenzyl)-9-hydroxy-15,15-dimethyl-3,6,13-trioxo-8-(4-((6-(8-((S)-tetrahydrofuran-2-carbonyl)-3,8-diazabicyclo[3.2.1]octan-3-yl)pyridin-3-yl)ethynyl)benzyl)-2-oxa-4,7,11,12-tetraazahexadecan-14-yl)carbamate], for which, under setting [1], the EC50 came out at 5.4 nM. The same measure, in the same setting: to `COC(=O)N[C@H](C(=O)NN(Cc1c(F)cc(-c2ncccn2)cc1F)C[C@H](O)[C@H](Cc1ccc(C#Cc2ccc(N3CC4CCC(C3)N4C3COC3)nc2)cc1)NC(=O)[C@@H](NC(=O)OC)C(C)(C)C(F)(F)F)C(C)(C)C` [Example 96, Methyl ((5S,8S,9S,14S)-11-(2,6-difluoro-4-(pyrimidin-2-yl)benzyl)-9-hydroxy-15,15-dimethyl-8-(4-((6-(8-(oxetan-3-yl)-3,8-diazabicyclo[3.2.1]octan-3-yl)pyridin-3-yl)ethynyl)benzyl)-3,6,13-trioxo-5-(1,1,1-trifluoro-2-methylpropan-2-yl)-2-oxa-4,7,11,12-tetraazahexadecan-14-yl)carbamate] belongs 2.33 nM. The same measure, in the same setting: next, `COC(=O)N[C@H](C(=O)N[C@@H](Cc1ccc(C#Cc2ccc(N3CCN4CCOC[C@H]4C3)nc2)cc1)[C@@H](O)CN(Cc1c(F)cc(-c2ccn(CC(F)F)n2)cc1F)NC(=O)[C@@H](NC(=O)OC)C(C)(C)C(F)(F)F)C(C)(C)C(F)(F)F` [Example 10, Methyl ((5S,8S,9S,14S)-11-(4-(1-(2,2-difluoroethyl)-1H-pyrazol-3-yl)-2,6-difluorobenzyl)-16,16,16-trifluoro-8-(4-((6-((R)-hexahydropyrazino[2,1-c][1,4]oxazin-8(1H)-yl)pyridin-3-yl)ethynyl)benzyl)-9-hydroxy-15,15-dimethyl-3,6,13-trioxo-5-(1,1,1-trifluoro-2-methylpropan-2-yl)-2-oxa-4,7,11,12-tetraazahexadecan-14-yl)carbamate]: 3.46 nM. As for `COC(=O)N[C@H](C(=O)N[C@@H](Cc1ccc(C#Cc2ccc(N3CC4CCC(C3)N4C3COC3)nc2)cc1)[C@@H](O)CN(Cc1c(F)cc(C2COC2)cc1F)NC(=O)[C@@H](NC(=O)OC)C(C)(C)C(F)(F)F)C(C)(C)C(F)(F)F` [Example 83, Methyl ((5S,8S,9S,14S)-11-(2,6-difluoro-4-(oxetan-3-yl)benzyl)-16,16,16-trifluoro-9-hydroxy-15,15-dimethyl-8-(4-((6-(8-(oxetan-3-yl)-3,8-diazabicyclo[3.2.1]octan-3-yl)pyridin-3-yl)ethynyl)benzyl)-3,6,13-trioxo-5-(1,1,1-trifluoro-2-methylpropan-2-yl)-2-oxa-4,7,11,12-tetraazahexadecan-14-yl)carbamate], under setting [1], the EC50 is 17.2 nM.

In turn, `COC(=O)N[C@H](C(=O)N[C@@H](Cc1ccc(C#Cc2cnc(N3C[C@H]4C[C@@H]3CN4C3COC3)nc2)cc1)[C@@H](O)CN(Cc1c(F)cc(-c2ncccn2)cc1F)NC(=O)[C@@H](NC(=O)OC)C(C)(C)C(F)(F)F)C(C)(C)C(F)(F)F` [Example 24, Methyl ((5S,8S,9S,14S)-11-(2,6-difluoro-4-(pyrimidin-2-yl)benzyl)-16,16,16-trifluoro-9-hydroxy-15,15-dimethyl-8-(4-((2-((1R,4R)-5-(oxetan-3-yl)-2,5-diazabicyclo[2.2.1]heptan-2-yl)pyrimidin-5-yl)ethynyl)benzyl)-3,6,13-trioxo-5-(1,1,1-trifluoro-2-methylpropan-2-yl)-2-oxa-4,7,11,12-tetraazahexadecan-14-yl)carbamate] registered a concentration giving a half-maximal response (EC50) under setting [2] of 3.82 nM.

`COC(=O)N[C@H](C(=O)N[C@@H](Cc1ccc(C#Cc2ccc(N3CC4CCC(C3)N4C3COC3)nc2C)cc1)[C@@H](O)CN(Cc1c(F)cc(-c2cnn(C(F)F)c2)cc1F)NC(=O)[C@@H](NC(=O)OC)C(C)(C)C(F)(F)F)C(C)(C)C(F)(F)F` [Example 155, Methyl ((5S,8S,9S,14S)-11-(4-(1-(difluoromethyl)-1H-pyrazol-4-yl)-2,6-difluorobenzyl)-16,16,16-trifluoro-9-hydroxy-15,15-dimethyl-8-(4-((2-methyl-6-(8-(oxetan-3-yl)-3,8-diazabicyclo[3.2.1]octan-3-yl)pyridin-3-yl)ethynyl)benzyl)-3,6,13-trioxo-5-(1,1,1-trifluoro-2-methylpropan-2-yl)-2-oxa-4,7,11,12-tetraazahexadecan-14-yl)carbamate]: the EC50 under setting [1] was 8.95 nM.

For `COC(=O)N[C@H](C(=O)N[C@@H](Cc1ccc(C#Cc2ccc(N3CC4CCC(C3)N4C3COC3)cc2)cc1)[C@@H](O)CN(Cc1c(F)cc(-c2ccn(C(F)F)n2)cc1F)NC(=O)[C@@H](NC(=O)OC)C(C)(C)C(F)(F)F)C(C)(C)C(F)(F)F` [Example 178, Methyl ((5S,8S,9S,14S)-11-(4-(1-(difluoromethyl)-1H-pyrazol-3-yl)-2,6-difluorobenzyl)-16,16,16-trifluoro-9-hydroxy-15,15-dimethyl-8-(4-((4-(8-(oxetan-3-yl)-3,8-diazabicyclo[3.2.1]octan-3-yl)phenyl)ethynyl)benzyl)-3,6,13-trioxo-5-(1,1,1-trifluoro-2-methylpropan-2-yl)-2-oxa-4,7,11,12-tetraazahexadecan-14-yl)carbamate], under setting [1], the EC50 worked out at 10.3 nM. The same measure, in the same setting: next, `COC(=O)N[C@H](C(=O)N[C@@H](Cc1ccc(C#Cc2ccc(N3CC4CCC(C3)N4C3COC3)nc2)cc1)[C@@H](O)CN(Cc1c(F)cc(-c2ccccn2)cc1Cl)NC(=O)[C@@H](NC(=O)OC)C(C)(C)CF)C(C)(C)CF` [Example 234, methyl ((5S,8S,9S,14S)-11-(2-chloro-6-fluoro-4-(pyridin-2-yl)benzyl)-16-fluoro-5-(1-fluoro-2-methylpropan-2-yl)-9-hydroxy-15,15-dimethyl-8-(4-((6-(8-(oxetan-3-yl)-3,8-diazabicyclo[3.2.1]octan-3-yl)pyridin-3-yl)ethynyl)benzyl)-3,6,13-trioxo-2-oxa-4,7,11,12-tetraazahexadecan-14-yl)carbamate]: 2.54 nM. For `COC(=O)N[C@H](C(=O)N[C@@H](Cc1ccc(C#Cc2ccc(N3CC4CC(C3)N4C3COC3)nc2)cc1)[C@@H](O)CN(Cc1c(F)cc(-c2ccc(F)cn2)cc1F)NC(=O)[C@@H](NC(=O)OC)C(C)(C)C(F)(F)F)C(C)(C)C(F)(F)F` [Example 139, Methyl ((5S,10S,11S,14S)-8-(2,6-difluoro-4-(5-fluoropyridin-2-yl)benzyl)-16,16,16-trifluoro-10-hydroxy-15,15-dimethyl-11-(4-((6-(6-(oxetan-3-yl)-3,6-diazabicyclo[3.1.1]heptan-3-yl)pyridin-3-yl)ethynyl)benzyl)-3,6,13-trioxo-5-(1,1,1-trifluoro-2-methylpropan-2-yl)-2-oxa-4,7,8,12-tetraazahexadecan-14-yl)carbamateate], under “HIV-1 (IIIB), MT-4 cells, 5 days, Cell Titer Glo, read-out: EC50”, the EC50 was 3.92 nM. Consider `COC(=O)N[C@H](C(=O)N[C@@H](Cc1ccc(C#Cc2ccc(N3CC4CCC(C3)N4C3COC3)nc2)cc1)[C@@H](O)CN(Cc1c(F)cc(-c2ccn([C@@H]3CCOC3)n2)cc1F)NC(=O)[C@@H](NC(=O)OC)C(C)(C)C(F)(F)F)C(C)(C)C(F)(F)F` [Example 15, Methyl ((5S,8S,9S,14S)-11-(2,6-difluoro-4-(1-((R)-tetrahydrofuran-3-yl)-1H-pyrazol-3-yl)benzyl)-16,16,16-trifluoro-9-hydroxy-15,15-dimethyl-8-(4-((6-(8-(oxetan-3-yl)-3,8-diazabicyclo[3.2.1]octan-3-yl)pyridin-3-yl)ethynyl)benzyl)-3,6,13-trioxo-5-(1,1,1-trifluoro-2-methylpropan-2-yl)-2-oxa-4,7,11,12-tetraazahexadecan-14-yl)carbamate], for which the EC50 under setting [1] is 4.22 nM. Same read-out and setting: to `COC(=O)N[C@H](C(=O)N[C@@H](Cc1ccc(C#Cc2ccc(N3CC4CCC(C3)N4C3COC3)nc2C)cc1)[C@@H](O)CN(Cc1c(F)cc(-c2ccn(C(F)F)n2)cc1F)NC(=O)[C@@H](NC(=O)OC)C(C)(C)C(F)(F)F)C(C)(C)C(F)(F)F` [Example 152, Methyl ((5S,8S,9S,14S)-11-(4-(1-(difluoromethyl)-1H-pyrazol-3-yl)-2,6-difluorobenzyl)-16,16,16-trifluoro-9-hydroxy-15,15-dimethyl-8-(4-((2-methyl-6-(8-(oxetan-3-yl)-3,8-diazabicyclo[3.2.1]octan-3-yl)pyridin-3-yl)ethynyl)benzyl)-3,6,13-trioxo-5-(1,1,1-trifluoro-2-methylpropan-2-yl)-2-oxa-4,7,11,12-tetraazahexadecan-14-yl)carbamate] belongs 6.16 nM. Consider `COC(=O)N[C@H](C(=O)N[C@@H](Cc1ccc(C#Cc2ccc(N3CCN(C(C)=O)CC3)nc2)cc1)[C@@H](O)CN(Cc1c(F)cc(-c2ccn(C)n2)cc1F)NC(=O)[C@@H](NC(=O)OC)C(C)(C)C)C(C)(C)C` [Example 228], for which the EC50 under setting [2] was found to be 1.66 nM. Regarding `COC(=O)N[C@H](C(=O)N[C@@H](Cc1ccc(C#Cc2ccc(N3CC4CC(CN(c5ccccn5)C4)C3)nc2)cc1)[C@@H](O)CN(Cc1c(F)cc(-c2cnn(C(F)F)c2)cc1F)NC(=O)[C@@H](NC(=O)OC)C(C)(C)C(F)(F)F)C(C)(C)C(F)(F)F` [Example 66, Methyl ((5S,8S,9S,14S)-11-(4-(1-(difluoromethyl)-1H-pyrazol-4-yl)-2,6-difluorobenzyl)-16,16,16-trifluoro-9-hydroxy-15,15-dimethyl-3,6,13-trioxo-8-(4-((6-(7-(pyridin-2-yl)-3,7-diazabicyclo[3.3.1]nonan-3-yl)pyridin-3-yl)ethynyl)benzyl)-5-(1,1,1-trifluoro-2-methylpropan-2-yl)-2-oxa-4,7,11,12-tetraazahexadecan-14-yl)carbamate], the EC50 under setting [1] amounted to 14.5 nM.

The term EC50 denotes the concentration that produces a half-maximal response.
